Patent US12552755B2, “Cinnamic amide derivative having FXR activating effect, pharmaceutical composition containing the same as active ingredient, and method for preparing the same” (KYUNGSUNG UNIVERSITY INDUSTRY COOPERATION FOUNDATION, priority 2019, dated 2026)

Target: T1, farnesol X receptor (FXR) (Homo sapiens, UniProt Q96RI1)
T1 construct: endogenous in cells; host or cells: HepG2
T1 sequence (Q96RI1 1-486): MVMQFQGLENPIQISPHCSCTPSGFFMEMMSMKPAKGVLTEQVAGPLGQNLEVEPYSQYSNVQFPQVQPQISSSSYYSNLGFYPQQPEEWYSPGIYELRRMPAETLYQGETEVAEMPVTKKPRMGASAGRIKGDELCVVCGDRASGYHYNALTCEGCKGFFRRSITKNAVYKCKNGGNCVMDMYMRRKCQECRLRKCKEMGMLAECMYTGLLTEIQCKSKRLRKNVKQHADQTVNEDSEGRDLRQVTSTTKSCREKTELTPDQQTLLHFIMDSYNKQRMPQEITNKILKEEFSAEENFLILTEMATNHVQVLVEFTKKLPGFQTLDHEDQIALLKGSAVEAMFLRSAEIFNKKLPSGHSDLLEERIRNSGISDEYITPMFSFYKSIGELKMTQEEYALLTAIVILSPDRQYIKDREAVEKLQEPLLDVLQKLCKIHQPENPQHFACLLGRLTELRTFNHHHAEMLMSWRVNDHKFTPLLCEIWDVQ
Test: Farnesol X receptor (FXR) reporter gene assay (dual luciferase) in HepG2 cells
Format: cell-based
Conditions: for fold induction at 10 µM: HepG2 cells, drug treatment 24 hours, firefly/renilla luciferase ratio, Con = 1.00; for FXR activating effect compared with GW4064: statement on Table 4 data
Method: HepG2 cells were purchased from ATCC (Manassas, VA, USA) and cultured in Dulbecco's modified Eagle's medium (DMEM; Hyclone) containing 10% fetal bovine serum (FBS, Hyclone, Logan, UT, USA), 50 units/mL penicillin (Hyclone) and 50 μg/mL streptomycin (Hyclone). All cells were cultured to have a confluency of about 80% to 90% under the conditions of 37° C. and 5% Co2.
In order to measure FXR transcription factor activity, HepG2 cells (1×10^5 cells/well) were cultured in a 48-well cell culture plate (SPL Life Science Co., Gyeonggido, Korea) for 20 hours and then transduced using Lipofectamin L3000 (Invitrogen, San Diego, CA, USA). Luciferase is an enzyme that catalyzes light-emitting reactions. A plasmid in which the firefly luciferase gene was fused to farnesol X receptor (FXR) and a plasmid in which the renilla luciferase gene was fused to thymidine kinase (TK) were used for transduction. Reacted were 25 μL of serum and antibiotic-free Opti-MEM® (Life Technologies, Grand Island, NY) and 0.5 μL of Lipofectamin L3000 per 0.5 μg of FXR-firefly luciferase plasmid and 10 ng of TK-renilla luciferase plasmid, and the cells were reacted with the reaction mixture for 24 hours. Thereafter, DMEM medium containing 0.1% serum was treated with a drug for 24 hours. After the reaction was completed, the drug-treated culture medium was discarded, and lysis buffer was added at 0.4 ml/well to remove the cells, then the cells were dispensed into a 96-well white plate (SPL Life Science Co.), and the luminescence level was measured using the Dual-glo Luciferase Assay System (Promega, Madison, WI, USA). For the firefly luciferase activity (to see the level of FXR expression) and renilla luciferase activity (to provide a reference value by showing constant expression), the luminescence level was measured using the GloMax Multi Detection System (Promega) and then the relative ratio (firefly luciferase activity/renilla luciferase activity) was calculated.

Structure (SMILES)	fold induction at 10 µM	FXR activating effect compared with GW4064
CCOC(=O)CNC(=O)/C=C/c1ccc(OCc2c(-c3ccccc3)noc2C)cc1 [KS-012, ethyl (E)-(3-(4-((5-methyl-3-phenylisoxazol-4-yl)methoxy)phenyl)acryloyl)glycinate]	1.61	
COC(=O)[C@H](Cc1ccccc1)NC(=O)/C=C/c1ccc(OCc2c(-c3c(Cl)cccc3Cl)noc2C)cc1 [KS-038, methyl (E)-(3-(4-((3-(2,6-dichlorophenyl)-5-methylisoxazol-4-yl)methoxy)phenyl)acryloyl)-L-phenylalaninate]	2.21	
O=C(O)CNC(=O)/C=C/c1ccc(OCc2ccc(F)cc2)cc1 [KS-017, (E)-(3-(4-((4-fluorobenzyl)oxy)phenyl)acryloyl)glycine]	1.14	
CCOC(=O)[C@H](C)NC(=O)/C=C/c1ccc(OCc2c(-c3ccccc3)noc2C)cc1 [KS-027, ethyl (E)-(3-(4-((5-methyl-3-phenylisoxazol-4-yl)methoxy)phenyl)acryloyl)-L-alaninate]	1.04	
CCOC(=O)CNC(=O)/C=C/c1ccc(OCc2cc(F)c(F)cc2F)cc1 [KS-009, ethyl (E)-(3-(4-((2,4,5-trifluorobenzyl)oxy)phenyl)acryloyl)glycinate]	1.44	
CCOC(=O)CNC(=O)/C=C/c1ccc(OCc2ccc([N+](=O)[O-])cc2)cc1 [KS-006, ethyl (E)-(3-(4-((4-nitrobenzyl)oxy)phenyl)acryloyl)glycinate]	1.38	
CCOC(=O)CNC(=O)/C=C/c1ccc(OCc2ccccc2)cc1 [KS-002, ethyl (E)-(3-(4-(benzyloxy)phenyl)acryloyl)glycinate]	1.22	
O=C(O)CNC(=O)/C=C/c1ccc(OCc2ccc(OC(F)(F)F)cc2)cc1 [KS-015, (E)-(3-(4-((4-(trifluoromethoxy)benzyl)oxy)phenyl)acryloyl)glycine]	2.65	
CCOC(=O)CNC(=O)/C=C/c1ccc(OCc2ccc(-c3ccccc3)cc2)cc1 [KS-004, ethyl (E)-(3-(4-([1,1′-biphenyl]-4-ylmethoxy)phenyl)acryloyl)glycinate]	2.03	
O=C(O)CNC(=O)/C=C/c1ccc(O)cc1 [KS-013, (E)-(3-(4-hydroxyphenyl)acryloyl)glycine]	1.46	
O=C(O)CNC(=O)/C=C/c1ccc(OCc2ccc([N+](=O)[O-])cc2)cc1 [KS-018, (E)-(3-(4-((4-nitrobenzyl)oxy)phenyl)acryloyl)glycine]	1.28	

Now from value to molecule:

fold induction at 10 µM	FXR activating effect compared with GW4064	Structure (SMILES)
7.95	superior to GW4064	COC(=O)[C@H](Cc1ccccc1)NC(=O)/C=C/c1ccc(OCc2c(-c3c(Cl)cccc3Cl)noc2C(C)C)cc1 [KS-037, methyl (E)-(3-(4-((3-(2,6-dichlorophenyl)-5-isopropylisoxazol-4-yl)methoxy)phenyl)acryloyl)-L-phenylalaninate]
2		COC(=O)[C@@H](C)NC(=O)/C=C/c1ccc(OCc2c(-c3c(Cl)cccc3Cl)noc2C)cc1 [KS-050, methyl (E)-(3-(4-((3-(2,6-dichlorophenyl)-5-methylisoxazol-4-yl)methoxy)phenyl)acryloyl)-D-alaninate]
1.71		Cc1onc(-c2c(Cl)cccc2Cl)c1COc1ccc(/C=C/C(=O)N[C@@H](C)C(=O)O)cc1 [KS-029, (E)-(3-(4-((3-(2,6-dichlorophenyl)-5-methylisoxazol-4-yl)methoxy)phenyl)acryloyl)-L-alanine]
3.04		Cc1onc(-c2c(Cl)cccc2Cl)c1COc1ccc(/C=C/C(=O)NCCC(=O)O)cc1 [KS-047, (E)-3-(3-(4-((3-(2,6-dichlorophenyl)-5-methylisoxazol-4-yl)methoxy)phenyl)acrylamido)propanoic acid]
7.44	superior to GW4064	CC(C)c1onc(-c2c(Cl)cccc2Cl)c1COc1ccc(/C=C/C(=O)N[C@@H](C)C(=O)O)cc1 [KS-028, (E)-(3-(4-((3-(2,6-dichlorophenyl)-5-isopropylisoxazol-4-yl)methoxy)phenyl)acryloyl)-L-alanine]
8.12	superior to GW4064	CC(C)c1onc(-c2c(Cl)cccc2Cl)c1COc1ccc(/C=C/C(=O)N[C@H](C)C(=O)O)cc1 [KS-052, (E)-(3-(4-((3-(2,6-dichlorophenyl)-5-isopropylisoxazol-4-yl)methoxy)phenyl)acryloyl)-D-alanine]
10.5	superior to GW4064	CCOC(=O)CNC(=O)/C=C/c1ccc(OCc2c(-c3c(Cl)cccc3Cl)noc2C(C)C)cc1 [KS-010, ethyl (E)-(3-(4-((3-(2,6-dichlorophenyl)-5-isopropylisoxazol-4-yl)methoxy)phenyl)acryloyl)glycinate]
1.65		CCOC(=O)CNC(=O)/C=C/c1ccc(OCc2c(-c3c(Cl)cccc3Cl)noc2C)cc1 [KS-011, ethyl (E)-(3-(4-((3-(2,6-dichlorophenyl)-5-methylisoxazol-4-yl)methoxy)phenyl)acryloyl)glycinate]
8.91	superior to GW4064	CC(C)c1onc(-c2c(Cl)cccc2Cl)c1COc1ccc(/C=C/C(=O)N[C@H](C(=O)O)C(C)C)cc1 [KS-034, (E)-(3-(4-((3-(2,6-dichlorophenyl)-5-isopropylisoxazol-4-yl)methoxy)phenyl)acryloyl)-L-valine]
1.26		CCOC(=O)[C@H](C)NC(=O)/C=C/c1ccc(OCc2c(-c3c(Cl)cccc3Cl)noc2C)cc1 [KS-026, ethyl (E)-(3-(4-((3-(2,6-dichlorophenyl)-5-methylisoxazol-4-yl)methoxy)phenyl)acryloyl)-L-alaninate]
1.89		CCOC(=O)[C@@H](NC(=O)/C=C/c1ccc(OCc2c(-c3c(Cl)cccc3Cl)noc2C)cc1)C(C)C [KS-032, ethyl (E)-(3-(4-((3-(2,6-dichlorophenyl)-5-methylisoxazol-4-yl)methoxy)phenyl)acryloyl)-L-valinate]
